{"source": "patent US5494895A", "about": "“Scorpion peptide margatoxin with immunosuppressant activity” (Merck & Co., Inc., priority 1993, dated 1996)", "key": {"[1]": {"target": "T1, Kv 1.3 of human T lymphocytes (Homo sapiens, UniProt P22001)", "T1 construct": "endogenous in cells; host or cells: purified human peripheral blood T lymphocytes", "T1 sequence (P22001 whole entry)": "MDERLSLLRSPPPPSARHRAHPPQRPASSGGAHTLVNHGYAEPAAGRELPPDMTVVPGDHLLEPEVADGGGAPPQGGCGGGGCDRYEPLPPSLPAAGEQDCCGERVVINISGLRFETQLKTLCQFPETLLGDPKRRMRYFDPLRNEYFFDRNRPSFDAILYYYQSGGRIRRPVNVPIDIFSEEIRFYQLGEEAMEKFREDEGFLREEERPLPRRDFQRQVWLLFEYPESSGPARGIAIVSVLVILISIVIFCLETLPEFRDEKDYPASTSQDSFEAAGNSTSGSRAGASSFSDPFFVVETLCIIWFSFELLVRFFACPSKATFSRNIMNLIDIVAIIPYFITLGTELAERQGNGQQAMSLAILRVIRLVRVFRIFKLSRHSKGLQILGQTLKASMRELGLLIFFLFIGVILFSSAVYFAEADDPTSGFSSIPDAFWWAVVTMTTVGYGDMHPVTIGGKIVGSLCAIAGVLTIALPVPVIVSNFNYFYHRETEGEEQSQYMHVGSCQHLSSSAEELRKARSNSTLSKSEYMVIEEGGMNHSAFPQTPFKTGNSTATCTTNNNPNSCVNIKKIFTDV", "assay": "[125I]ChTX binding to human T cells", "method": "In addition to being tested for competition for [^125 I]ChTX binding to rat brain and bovine aortic smooth muscle, MgTX was evaluated for its effects on [^125 I]ChTX binding to human T lymphocytes and to plasma membranes prepared from Jurkat cells, a human T-cell leukemia line. MgTX competition for [^125 I]ChTX binding to human T cells was performed as described by Lin, et al., J. Exp. Med. 177, 637-645, 1993. Binding experiments using monocyte-depleted, E-rosetted human T cells were carried out in isotonic sucrose with 5 mM KCl, 5 mM NaCl, 6 mM glucose and 10 mM HEPES, pH 8.0 until equilibrium was achieved. The procedure for binding to plasma membranes from Jurkat Cells is similar except that the binding solution was 3 mM KCl, 7 mM NaCl, 10 mM HEPES, pH 8.0. Free ligand was removed from bound by filtration through Whatman GF/C glass fiber filters (pretreated with 0.5% polyethylenimine). […] Hill coefficients were 2 in both cases."}, "[2]": {"test_system": "Kv 3 (rat Kv 1.3; human Kv 1.3)", "assay": "Two-electrode voltage clamp of Xenopus oocytes expressing Kv 3 (Kv 1.3)", "format": "cell-based, rat and human", "details": "read-out: IC50 on cloned channel Kv 3", "method": "(§1) Ionic currents were also recorded from Xenopus oocytes that had been injected with RNA transcribed in vitro from one or another of the following K^+ channel cDNA clones. Kv 1 (rat Kv 1.5), rat or human Kv 3 (rat Kv 1.3; human Kv 1.3), Kv 4 (rat Kv 3.1 ), rat ISK, Kv 2 (rat Kv 1.6) or Drosophila Shaker-H4. The names of the clones are listed as originally published, with the appropriate parenthetical designation according to the unified gene nomenclature proposed by Chandy. Shaker-H4 is a splice variant from the original Drosophila Shaker K^+ channel gene. Kv 1.3 is the ChTX-sensitive delayed rectifier current found in rat and human T lymphocytes (data from rat and human clones were indistinguishable and were combined) and it is a member of the Shaker family. Kv 1.5 is a channel cloned from rat (Swanson et al., Neuron, 4, 929, 1990) and is another member of the Shaker family. The Kv 1.5 transcript has been detected in pancreatic β cells as described in Philipson, et al., Proc. Natl. Acad. Sci. U.S.A. 88, 53, 1991. […] The ISK transcript has been detected in lymphocytes (Attali et al., J. Biol. Chem,. 267, 8650, 1992), but no evidence of the IKs current has been found in those cells.\n(§2) Methods for oocyte isolation and micro-injection were previously described in Goldin, Meth. […] Currents expressed in oocytes were measured using a DAGAN model CA-1 two-electrode voltage clamp. […]"}, "Kv 3.1": {"target": "T2, Kv 3.1 (Rattus norvegicus, UniProt P25122)", "T2 construct": "expressed in transfected cells; host or cells: Xenopus oocytes injected with RNA transcribed in vitro from the cDNA clone", "T2 sequence (P25122 1-585)": "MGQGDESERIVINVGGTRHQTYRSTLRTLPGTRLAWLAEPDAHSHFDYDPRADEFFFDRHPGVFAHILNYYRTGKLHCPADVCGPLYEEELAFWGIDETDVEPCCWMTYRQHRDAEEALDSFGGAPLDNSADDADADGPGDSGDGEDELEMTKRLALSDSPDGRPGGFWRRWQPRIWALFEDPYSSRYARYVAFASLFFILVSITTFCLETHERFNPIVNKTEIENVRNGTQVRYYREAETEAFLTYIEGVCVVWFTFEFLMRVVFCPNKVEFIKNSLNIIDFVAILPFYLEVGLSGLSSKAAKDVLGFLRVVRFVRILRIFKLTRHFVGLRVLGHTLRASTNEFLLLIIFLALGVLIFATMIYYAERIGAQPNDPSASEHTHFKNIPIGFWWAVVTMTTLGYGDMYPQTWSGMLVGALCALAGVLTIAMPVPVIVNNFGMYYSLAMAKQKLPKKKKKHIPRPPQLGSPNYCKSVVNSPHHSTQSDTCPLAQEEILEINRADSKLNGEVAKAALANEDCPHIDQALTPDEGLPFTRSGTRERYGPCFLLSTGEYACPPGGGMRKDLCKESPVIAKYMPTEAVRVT", "assay": "Two-electrode voltage clamp of Xenopus oocytes expressing Kv 4 (Kv 3.1)", "format": "cell-based", "details": "200 nM MgTX", "method": "as §1, §2"}, "ISK": {"target": "T3, ISK (Rattus norvegicus, UniProt P15383)", "T3 construct": "expressed in transfected cells; host or cells: Xenopus oocytes injected with RNA transcribed in vitro from the cDNA clone", "T3 sequence (P15383 whole entry)": "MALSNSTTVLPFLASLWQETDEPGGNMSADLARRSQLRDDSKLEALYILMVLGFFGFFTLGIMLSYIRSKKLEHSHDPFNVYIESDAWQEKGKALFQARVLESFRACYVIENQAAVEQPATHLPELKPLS", "T3 sequence (P70057 whole entry partner)": "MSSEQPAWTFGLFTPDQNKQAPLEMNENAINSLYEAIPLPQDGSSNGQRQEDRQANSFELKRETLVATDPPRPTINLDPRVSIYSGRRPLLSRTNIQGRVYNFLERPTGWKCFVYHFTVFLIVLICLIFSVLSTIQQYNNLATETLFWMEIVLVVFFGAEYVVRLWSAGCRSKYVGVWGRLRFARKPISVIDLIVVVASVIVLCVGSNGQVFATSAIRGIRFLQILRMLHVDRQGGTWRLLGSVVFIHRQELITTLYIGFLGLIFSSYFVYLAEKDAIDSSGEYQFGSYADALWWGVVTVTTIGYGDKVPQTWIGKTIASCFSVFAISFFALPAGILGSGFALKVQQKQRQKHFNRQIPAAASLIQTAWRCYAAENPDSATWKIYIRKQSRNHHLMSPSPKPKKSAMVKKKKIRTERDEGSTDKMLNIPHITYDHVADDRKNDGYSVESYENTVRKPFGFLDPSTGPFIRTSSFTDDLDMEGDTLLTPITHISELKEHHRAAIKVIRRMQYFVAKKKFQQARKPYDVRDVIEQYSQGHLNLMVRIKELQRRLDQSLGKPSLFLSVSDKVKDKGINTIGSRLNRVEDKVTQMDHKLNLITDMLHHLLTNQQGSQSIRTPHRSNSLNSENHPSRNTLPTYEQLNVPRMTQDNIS", "assay": "Two-electrode voltage clamp of Xenopus oocytes expressing ISK", "format": "cell-based", "details": "200 nM MgTX", "method": "as §1, §2"}, "Kv 1.6": {"target": "T4, Kv 1.6 (Rattus norvegicus, UniProt P17659)", "T4 construct": "expressed in transfected cells; host or cells: Xenopus oocytes injected with RNA transcribed in vitro from the cDNA clone", "T4 sequence (P17659 whole entry)": "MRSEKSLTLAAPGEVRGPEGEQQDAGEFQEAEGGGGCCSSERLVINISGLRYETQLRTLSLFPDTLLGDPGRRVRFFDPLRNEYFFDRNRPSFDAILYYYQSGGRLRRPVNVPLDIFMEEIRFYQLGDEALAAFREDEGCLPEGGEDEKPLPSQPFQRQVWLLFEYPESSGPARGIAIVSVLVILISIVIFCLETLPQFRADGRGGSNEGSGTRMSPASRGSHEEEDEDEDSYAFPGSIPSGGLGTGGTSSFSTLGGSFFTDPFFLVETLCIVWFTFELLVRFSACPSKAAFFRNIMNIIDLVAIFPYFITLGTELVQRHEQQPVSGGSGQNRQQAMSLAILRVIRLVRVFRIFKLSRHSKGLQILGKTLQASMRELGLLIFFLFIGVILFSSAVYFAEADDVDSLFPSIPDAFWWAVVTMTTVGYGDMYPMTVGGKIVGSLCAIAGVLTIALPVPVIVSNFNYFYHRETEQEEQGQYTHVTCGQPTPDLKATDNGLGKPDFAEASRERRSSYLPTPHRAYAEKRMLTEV", "assay": "Two-electrode voltage clamp of Xenopus oocytes expressing Kv 2 (Kv 1.6)", "format": "cell-based", "details": "read-out: concentration at which Kv 1.6 was half blocked", "method": "as §1, §2"}, "Shaker-H4": {"target": "T5, Shaker-H4 (Drosophila melanogaster, UniProt P08510)", "T5 construct": "expressed in transfected cells; host or cells: Xenopus oocytes injected with RNA transcribed in vitro from the cDNA clone", "T5 sequence (P08510 whole entry)": "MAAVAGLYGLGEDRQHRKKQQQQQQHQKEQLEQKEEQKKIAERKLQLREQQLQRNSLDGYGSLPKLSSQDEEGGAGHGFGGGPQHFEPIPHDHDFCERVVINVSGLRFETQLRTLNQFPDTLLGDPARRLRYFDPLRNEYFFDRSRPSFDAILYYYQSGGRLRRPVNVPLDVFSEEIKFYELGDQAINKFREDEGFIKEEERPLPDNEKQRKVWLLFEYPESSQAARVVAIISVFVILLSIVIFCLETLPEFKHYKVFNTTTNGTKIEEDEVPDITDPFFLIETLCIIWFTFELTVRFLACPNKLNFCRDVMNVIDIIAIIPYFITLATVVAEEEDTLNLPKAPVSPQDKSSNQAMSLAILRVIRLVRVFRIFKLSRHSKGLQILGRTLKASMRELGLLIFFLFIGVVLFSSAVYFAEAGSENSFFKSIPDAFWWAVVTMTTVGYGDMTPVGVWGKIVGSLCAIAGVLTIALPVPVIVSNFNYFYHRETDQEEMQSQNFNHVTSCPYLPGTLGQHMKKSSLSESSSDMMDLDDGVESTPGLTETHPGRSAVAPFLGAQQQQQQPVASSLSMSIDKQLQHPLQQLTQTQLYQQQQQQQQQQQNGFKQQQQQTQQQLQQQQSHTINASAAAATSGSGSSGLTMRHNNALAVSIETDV", "assay": "Two-electrode voltage clamp of Xenopus oocytes expressing Shaker-H4", "format": "cell-based", "method": "as §1, §2"}, "[3]": {"test_system": "three different ChTX-sensitive, Ca2+-activated K+ channels of lymphocytes", "details": "even at 100 nM; cited from earlier work"}, "human T-lymphocytes": {"test_system": "human T-lymphocytes", "details": "cited from earlier work"}, "human T cells": {"test_system": "human T cells", "details": "cited from earlier work"}}, "note": "Peptide text beside a SMILES is read from it.", "data": [{"smiles": "CC[C@H](C)[C@H](NC(=O)[C@@H](N)[C@@H](C)O)C(=O)N[C@H](C(=O)N[C@@H](CC(N)=O)C(=O)N[C@H](C(=O)N[C@@H](CCCCN)C(=O)N[C@H]1CSSC[C@@H]2NC(=O)[C@H](CCCCN)NC(=O)[C@H](C)NC(=O)CNC(=O)[C@H](C)NC(=O)[C@H](CO)NC(=O)[C@H](CCC(N)=O)NC(=O)CNC(=O)[C@H](Cc3ccccc3)NC(=O)[C@H](CCC(N)=O)NC(=O)[C@H](C)NC(=O)[C@H](CCCCN)NC(=O)[C@@H]3CSSC[C@@H](C(=O)N[C@@H](Cc4ccc(O)cc4)C(=O)N4CCC[C@H]4C(=O)N[C@@H](Cc4c[nH]cn4)C(=O)O)NC(=O)[C@H](CCCCN)NC(=O)[C@H](CSSC[C@H](NC(=O)[C@H](CCC(N)=O)NC(=O)[C@H](CCCCN)NC(=O)[C@@H]4CCCN4C(=O)[C@H](CO)NC(=O)[C@H]([C@@H](C)O)NC1=O)C(=O)N[C@@H](CC(C)C)C(=O)N1CCC[C@H]1C(=O)N1CCC[C@H]1C(=O)N3)NC(=O)[C@H](CCCCN)NC(=O)CNC(=O)[C@H](CC(N)=O)NC(=O)[C@H](CCSC)NC2=O)C(C)C)[C@@H](C)CC", "note": "[MgTX, Margatoxin] (HELM PEPTIDE1{T.I.I.N.V.K.C.T.S.P.K.Q.C.L.P.P.C.K.A.Q.F.G.Q.S.A.G.A.K.C.M.N.G.K.C.K.C.Y.P.H}$PEPTIDE1,PEPTIDE1,7:R3-29:R3|PEPTIDE1,PEPTIDE1,13:R3-34:R3|PEPTIDE1,PEPTIDE1,17:R3-36:R3$$$V2.0; N-terminus and C-terminus assumed; bridges inferred)", "values": [{"measurement": "Hill coefficient", "setting": "[1]", "value": 2}, {"measurement": "IC50", "setting": "[1]; isotonic sucrose, pH 8.0, read-out: IC50 for inhibition of [125I]ChTX binding", "value": 1.4, "unit": "pM"}, {"measurement": "IC50", "setting": "[2]", "value": "~0.03", "unit": "nM"}, {"measurement": "sensitivity of cloned channel Kv 3.1 to block", "setting": "Kv 3.1", "value": "completely insensitive"}, {"measurement": "sensitivity of cloned channel ISK to block", "setting": "ISK", "value": "completely insensitive"}, {"measurement": "IC50", "setting": "Kv 1.6", "value": 5, "unit": "nM"}, {"measurement": "IC50", "setting": "Shaker-H4", "value": 100, "unit": "nM"}, {"measurement": "effect on three ChTX-sensitive Ca2+-activated K+ channels of lymphocytes", "setting": "[3]", "value": "no effect"}, {"measurement": "effect on interleukin 2 production", "setting": "human T-lymphocytes", "value": "inhibits interleukin 2 production"}, {"measurement": "effect on activation and proliferation mediated by Ca2+-dependent pathways", "setting": "human T cells", "value": "prevent activation and proliferation"}, {"measurement": "effect on membrane potential of human T cells", "setting": "human T cells", "value": "depolarize human T cells"}]}]}
